Test systems include Escherichia coli D21; Escherichia coli K91BK; Staphylococcus aureus.
Common to all, as to test: ≥ marks a high value that may be exact or a test limit, other limits are often not marked, values filed in µg/mL are converted to µM
Test [1] deals with Acinetobacter baumannii ATCC 19606.
The test system of test [2] is Enterobacter cloacae ATCC 49141.
Test [3] relates to Enterococcus faecalis ATCC 19433.
Test [4] relates to Escherichia coli ATCC 25922.
In test [5] the test system is Pseudomonas aeruginosa ATCC 27853.
Test [6] concerns Bacillus anthracis Sterne 34F2.
Test [7] concerns Bacillus subtilis var. niger ATCC 9372.
The test system of test [8] is Burkholderia thailandensis.
Test [9] relates to Candida albicans ATCC 36232.
The test system of test [10] is Escherichia coli ATCC 2592.
For test [11], the system named is Micrococcus luteus ATCC 9341.
Test [12] deals with Proteus vulgaris ATCC 6380.
In test [13] the test system is Pseudomonas aeruginosa ATCC 9027.
Test [14] relates to Staphylococcus aureus ATCC 6538.
Test [15] concerns Staphylococcus aureus A170.
Test [16] relates to Staphylococcus epidermidis.
For test [17], the system named is Clavibacter michiganensis subsp. michiganensis DSM 46294.
Test [18] concerns Pectobacterium carotovorum subsp. carotovorum DSM 30168.
In test [19] the test system is Pseudomonas corrugata DSM 7228.
Test [20] has as its system Pseudomonas syringae pv. syringae DSM 10604.
In test [21] the test system is Pseudomonas syringae pv. tomato DC3000.
Test [22] has as its system Staphylococcus aureus 90857.
The subject of test [23] is Xanthomonas vesicatoria DSM 50861.
Test [24] concerns Escherichia coli IFO 3972.
Test [25] concerns Staphylococcus aureus FDA 209P.
Test [26] has as its system Candida albicans ATCC 37092.
Test [27] deals with Staphylococcus aureus ATCC 29213.
The subject of test [28] is Enterococcus faecalis ATCC 29212.
The subject of test [29] is Staphylococcus epidermidis PIA 8400.
Test [30] relates to Escherichia coli NCTC 10418.
Test [31] relates to Staphylococcus aureus ATCC 25923.
Test [32] relates to Staphylococcus aureus NCTC 12981.

Values after ≈ are worked out from the molar mass of the structure shown. Values joined by “and” are separate entries in the source; they are usually repeats but may differ in a detail not shown here. Equal entries are not always repeated.

For orientation: MIC means the least concentration at which growth counts as inhibited. Regarding `CC(C)C[C@H](NC(=O)[C@H](CCCCN)NC(=O)[C@H](CCCCN)NC(=O)[C@H](CC(C)C)NC(=O)[C@H](CC(C)C)NC(=O)[C@H](CCCCN)NC(=O)[C@H](CCCCN)NC(=O)[C@H](CC(C)C)NC(=O)[C@H](CC(C)C)NC(=O)[C@H](CCCCN)NC(=O)[C@H](CCCCN)NC(=O)[C@H](CC(C)C)NC(=O)[C@H](C)NC(=O)[C@H](CC(=O)O)NC(=O)[C@@H](N)CC(=O)O)C(=O)O` [DDALKKLLKKLLKKL], the MIC in test [1] is 25 µM (≈ 44.2 µg/mL); in test [2], 6.2 µM (≈ 11 µg/mL); in [3] it was ≥ 50 µM; in test [4] it was 50 µM and 75 µM; in the test on Escherichia coli D21, 25 µM (≈ 44.2 µg/mL); in test [5] it was 12.5 µM and 25 µM.

For the molecule `CC[C@H](C)[C@H](NC(=O)[C@H](CCCN=C(N)N)NC(=O)[C@@H](NC(=O)[C@@H](NC(=O)[C@H](CCCN=C(N)N)NC(=O)[C@H](CC(C)C)NC(=O)[C@@H](NC(=O)[C@@H](NC(=O)[C@@H]1CCCN1C(=O)CNC(=O)[C@H](Cc1ccc(O)cc1)NC(=O)[C@H](CCCCN)NC(=O)[C@H](CCCCN)NC(=O)[C@@H](NC(=O)[C@H](C)NC(=O)[C@H](Cc1cnc[nH]1)NC(=O)[C@@H](NC(=O)[C@@H](NC(=O)[C@H](CCCCN)NC(=O)[C@H](CCCN=C(N)N)NC(=O)CNC(=O)[C@H](CC(C)C)NC(=O)[C@H](CCCN=C(N)N)NC(=O)[C@H](CCCN=C(N)N)NC(=O)[C@H](CC(C)C)NC(=O)[C@H](C)NC(=O)CNC(C)=O)[C@@H](C)CC)[C@@H](C)O)C(C)C)[C@@H](C)O)C(C)C)[C@@H](C)CC)[C@@H](C)CC)C(=O)N[C@@H](C)C(=O)NCC(N)=O` [GALRRLGRKITHAVKKYGPTVLRIIRIAG], the MIC was 1.19 µM (≈ 3.87 µg/mL) in test [6], 1.31 µM (≈ 4.27 µg/mL) in [7], ≥ 84.1 µM in [8] and 28.7 µM (≈ 93.4 µg/mL) against Escherichia coli K91BK.

As to `CC[C@H](C)[C@H](NC(=O)[C@H](CCCCN)NC(=O)[C@@H]1CCCN1C(=O)[C@H](CC(C)C)NC(=O)[C@H](Cc1ccccc1)NC(=O)[C@H](CC(N)=O)NC(=O)[C@H](C)NC(=O)[C@H](C)NC(=O)[C@H](CC(C)C)NC(=O)CNC(=O)[C@H](C)NC(=O)[C@H](CC(C)C)NC(=O)[C@@H](N)CC(C)C)C(=O)N[C@@H](Cc1ccccc1)C(=O)N[C@@H](CS)C(=O)N[C@@H](CCCCN)C(=O)N[C@H](C(=O)N[C@H](C(=O)N[C@@H](CCCN=C(N)N)C(=O)N[C@@H](CCCCN)C(=O)N[C@@H](CS)C(N)=O)[C@@H](C)O)[C@@H](C)CC` [LLAGLAANFLPKIFCKITRKC], the MIC in test [9] is 2.69 µM (≈ 6.25 µg/mL); in test [10] it was 5.39 µM (≈ 12.5 µg/mL); in test [11], 2.69 µM (≈ 6.25 µg/mL); in test [12], ≥ 43.1 µM; in test [13], 5.39 µM (≈ 12.5 µg/mL); in test [14], 5.39 µM (≈ 12.5 µg/mL). In the test with Staphylococcus aureus, this molecule gave a minimal inhibitory concentration (MIC) of 10.8 µM (≈ 25 µg/mL).

Consider `CC[C@H](C)[C@H](NC(=O)[C@@H]1CCCN1C(=O)[C@H](CC(C)C)NC(=O)[C@@H](N)CC(C)C)C(=O)N[C@H](C(=O)N[C@H](C(=O)N[C@@H](CC(N)=O)C(=O)N[C@@H](CC(C)C)C(=O)N[C@@H](CC(C)C)C(=O)N[C@@H](CCCCN)C(=O)N[C@@H](CO)C(=O)N[C@@H](CC(C)C)C(=O)N[C@@H](CC(C)C)C(=O)O)C(C)C)C(C)C` [LLPIVVNLLKSLL], for which the MIC in test [15] was 6.97 µM (≈ 10 µg/mL); in [16] it was 13.9 µM (≈ 20 µg/mL).

With `CC[C@H](C)[C@H](NC(=O)[C@H](CC(C)C)NC(=O)[C@H](CCCCN)NC(=O)[C@H](CCCCN)NC(=O)[C@H](CC(C)C)NC(=O)[C@@H](NC(=O)[C@H](CCCCN)NC(=O)[C@H](CCCCN)NC(=O)[C@@H](NC(=O)[C@@H](NC(=O)[C@H](CCCN=C(N)N)NC(=O)[C@@H](N)CC(C)C)[C@@H](C)CC)[C@@H](C)CC)[C@@H](C)CC)C(N)=O` [LRIIKKILKKLI], the MIC in test [17] amounted to 0.338 µM (≈ 0.5 µg/mL); in test [18], 1.69 µM (≈ 2.5 µg/mL); in test [19] it was 0.338 µM (≈ 0.5 µg/mL); in test [20] it was 0.338 µM (≈ 0.5 µg/mL); in test [21] it was 0.169 µM (≈ 0.25 µg/mL); in test [22], 3 µM (≈ 4.43 µg/mL). In test [23], this molecule registered an MIC of 0.169 µM (≈ 0.25 µg/mL).

Consider `CC(C)[C@H](NC(=O)[C@H](CCCCN)NC(=O)[C@H](CCCN=C(N)N)NC(=O)[C@H](CCCCN)NC(=O)[C@H](CCCCN)NC(=O)[C@H](CCCCN)NC(=O)[C@@H]1CCCN1)C(=O)O` [PKKKRKV], for which the MIC in test [24] and in [25] was ≥ 500 µM throughout.

With `CC[C@H](C)[C@H](NC(=O)[C@H](CCCN=C(N)N)NC(=O)[C@@H](N)CCCN=C(N)N)C(=O)N[C@@H](CCCN=C(N)N)C(=O)N1CCC[C@H]1C(=O)N[C@@H](CCCN=C(N)N)C(=O)N1CCC[C@H]1C(=O)N1CCC[C@H]1C(=O)N[C@@H](CCCN=C(N)N)C(=O)N[C@@H](CC(C)C)C(=O)N1CCC[C@H]1C(=O)N[C@@H](CCCN=C(N)N)C(=O)N1CCC[C@H]1C(=O)N[C@@H](CCCN=C(N)N)C(=O)N1CCC[C@H]1C(=O)N[C@@H](CCCN=C(N)N)C(=O)N1CCC[C@H]1C(=O)N[C@@H](CC(C)C)C(=O)N1CCC[C@H]1C(=O)N[C@@H](Cc1ccccc1)C(=O)N1CCC[C@H]1C(=O)N[C@@H](CCCN=C(N)N)C(=O)N1CCC[C@H]1C(=O)NCC(=O)O` [RRIRPRPPRLPRPRPRPLPFPRPG], the figures for the MIC in [26], in [4] and in test [27] were 1.12 µM (≈ 3.29 µg/mL), 0.45 µM (≈ 1.32 µg/mL) and 2.6 µM (≈ 7.64 µg/mL), respectively.

On to `CC[C@H](C)[C@H](NC(=O)[C@H](Cc1c[nH]c2ccccc12)NC(=O)[C@@H](NC(=O)[C@@H](NC(=O)[C@H](Cc1c[nH]c2ccccc12)NC(=O)[C@H](CCCCN)NC(=O)[C@H](CCCCN)NC(=O)[C@@H](NC(=O)[C@@H](N)CCCN=C(N)N)[C@@H](C)O)[C@@H](C)CC)C(C)C)C(N)=O` [RTKKWIVWI], for which the MIC in test [28] was 55.3 µM and 110 µM; in [4], 13.8 µM (≈ 17 µg/mL); in [27], 27.7 µM (≈ 34 µg/mL); in [29], 13.8 µM (≈ 17 µg/mL).

As for `NC(=O)[C@H](Cc1c[nH]c2ccccc12)NC(=O)[C@H](CCCN=C(N)N)NC(=O)[C@H](Cc1c[nH]c2ccccc12)NC(=O)[C@H](CCCN=C(N)N)NC(=O)[C@@H](N)Cc1c[nH]c2ccccc12` [WRWRW], the minimum inhibitory concentration (MIC) in test [4] was 16.9 µM (≈ 15 µg/mL); in [30], ≥ 72 µM; in test [5], 56.2 µM (≈ 49.9 µg/mL); in test [31], 11.2 µM (≈ 9.99 µg/mL); in test [32], ≥ 72 µM.

The record behind these values is DBAASP.
